Test results published in patent US20240226056A1, “Sleep or Post-Sleep Performance” (Vanda Pharmaceuticals Inc., priority 2018, published 2024).
Entries after “also recorded” stand apart in the source; their conditions may differ.

How the values were obtained:
[1] = Tasimelteon jet lag disorder (JLD) clinical program; type: in vivo, human; settings: individuals experiencing circadian advances of five to eight hours
[2] = preclinical models of acute phase-shifting and chronic re-entrainment; cited from earlier work
[3] = 10 mg, 20 mg, 50 mg and 100 mg daily doses; 5-hour advance in sleep-wake cycle; cited from earlier work
[4] = from prescribing information; cited from earlier work
[5] = Next-day driving performance on the CRCDS automobile driving simulator after a bedtime dose; type: in vivo, human; settings: bedtime dose tasimelteon 20 mg or zopiclone 7.5 mg
Method: In this study, 48 healthy volunteers operate an automobile driving simulator the moming after being administered a bedtime dose of tasimelteon 20 mg, zopiclone 7.5 mg, or placebo. Volunteers are instructed to operate the driving simulator for about one hour with a speed of 55 mph while maintaining lane position.
Driving performance is assessed by a number of validated measures, including standard deviation from lateral position (SDLP), a measure of lane weaving.
An SDLP of 4.4 cm as compared to control is considered equivalent to the driving impairment associated with a blood alcohol content (BAC) of 0.05%, the threshold for drunk driving in many countries.

Structure (SMILES): CCC(=O)NC[C@@H]1C[C@H]1c1cccc2c1CCO2 [tasimelteon]
- benefit in jet lag disorder (in words) [1]: significant benefits
- chronobiotic activity (in words) [2]: potent chronobiotic activity
- shifting dim light melatonin onset and sleep efficacy relative to placebo (in words) [3]: positive outcomes

Structure (SMILES): Cc1ccc(-n2nccn2)c(C(=O)N2CCN(c3nc4cc(Cl)ccc4o3)CC[C@H]2C)c1 [BELSOMRA]
- driving performance in clinical studies (in words) [4]: clinically meaningful impaired driving performance in some subjects

Structure (SMILES): CN1CCN(C(=O)OC2c3nccnc3C(=O)N2c2ccc(Cl)cn2)CC1 (stereo not drawn) [zopiclone]
- SDLP Difference (least squares means) vs Placebo ([5]; 48 healthy volunteers, driving simulator 9 hours post-dose, about one hour at 55 mph): 4.14 cm
- next-day driving impairment compared to placebo (in words) ([5]; evaluated nine hours after dosing): does significantly impair driving ability; also recorded: meaningful and significant effect on lane weaving
